Among the data in patent US20240228499A1, “MASP-2 INHIBITORS AND METHODS OF USE” (Omeros Corporation, priority 2022, published 2024) are Ki and IC50 values, retold here.

Format in all cases: biochemical
One test has as its target T1, human a-thrombin (Homo sapiens, UniProt P00734).
T1 construct: enzyme (human a-thrombin (BioPharm® Lab.)); purchased BioPharm Lab
Nature of the test: Enzymatic assay for thrombin (fluorogenic peptide substrate Boc-VPR-AMC). The following applies: room temperature, 20 mM Hepes pH 7.4, 20 min. Summed up:
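Human α-thrombin was incubated with serially diluted compound and fluorogenic substrate Boc-VPR-AMC in 20 mM Hepes pH 7.4, 140 mM NaCl, 0.1% Tween 20 at room temperature. The reaction was stopped after 20 min with 0.1 M acetic acid and fluorescence read. % activity was normalized to DMSO and no-enzyme controls, and IC50 was taken as equivalent to Ki.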

The test system of test [1] is Lectin Pathway Activation (LPA) in human serum. Nature of the test: Lectin pathway activation (LPA) assay in human serum, C4 deposition on mannan-coated plate. The following applies: 1% pooled human serum, 55 minutes, room temperature. As for the experimental part:
A Microtiter ELISA plate (Nunc-Maxi Sorp; Sigma-Aldrich®, USA) was coated with mannan sourced from Saccharomyces cerevisiae (Sigma-Aldrich®, USA) in a coating buffer comprising 33.3 mM Na2CO3 and 166.67 mM NaHCO3. The plates were incubated at room temperature overnight. Subsequently, the plates were blocked with a 5% bovine serum albumin solution (Sigma-Aldrich®, USA) prepared in PBST for 2 hours at room temperature with agitation. Varying concentrations of MASP-2 inhibitors were dispensed onto the empty plate.
To perform the assay, pooled human serum was diluted to 1% in a solution of 20 mM HEPES (pH=7.4), 140 mM NaCl, and 1 mM MgCl2. Then, 40 μl of the diluted human serum was dispensed into each well of the Microtiter ELISA plate and incubated for 55 minutes at room temperature. The C4 deposition on the mannan-coated surface was stopped using an EDTA stop solution (20 mM HEPES, pH=7.4, 140 mM NaCl, and 150 mM EDTA). Subsequently, rabbit anti-Human C4c antibody (Agilent Technologies, USA) prepared in PBST was added, and the plates were incubated at room temperature for 30 minutes with agitation, then washed with PBST, and Goat anti-rabbit IgG(H+L) HRP-conjugated (Southern Biotech®, USA) was added. The plates were again incubated at room temperature for 30 minutes with agitation, and then were washed with PBST. Following this, the Amplex® UltraRed® (Thermo Fischer Sci, USA) substrate solution was added for 16 minutes, followed by the addition of the Amplex® UltraRed® stop solution. The plates' fluorescence was measured using an i3× microplate reader (Molecular Devices, USA) with excitation at 550 nm and emission at 580 nm. The raw data generated from the plate reader was exported to GraphPad Prism® (version 10.0.3), and the non-linear regression curve was generated using the 4-parameter logistic fit equation. All data are reported as pIC50 with a 95% confidence interval.

The target in another test is T2, MASP-2 (CCP1-CCP2-SP) (Homo sapiens, UniProt O00187).
T2 construct: 15 μL of Enzyme MASP-2 (CCP1-CCP2-SP) in Assay Buffer
T2 sequence (O00187 287-686 limits assumed): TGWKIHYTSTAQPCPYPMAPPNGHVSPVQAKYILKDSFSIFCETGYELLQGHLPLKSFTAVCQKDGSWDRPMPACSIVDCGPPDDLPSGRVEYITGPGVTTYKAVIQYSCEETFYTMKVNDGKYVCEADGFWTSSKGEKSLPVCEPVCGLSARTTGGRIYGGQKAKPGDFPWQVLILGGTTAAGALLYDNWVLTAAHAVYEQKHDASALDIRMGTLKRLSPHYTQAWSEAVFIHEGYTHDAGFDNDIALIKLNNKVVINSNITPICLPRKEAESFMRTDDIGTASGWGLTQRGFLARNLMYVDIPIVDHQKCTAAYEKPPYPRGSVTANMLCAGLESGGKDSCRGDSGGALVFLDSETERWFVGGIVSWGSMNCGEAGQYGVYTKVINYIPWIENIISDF
Nature of the test: Enzymatic assay for MASP-2 inhibitory activity (fluorogenic substrate). The following applies: room temperature, 20 mM Hepes pH 7.4, 20 min. A digest of the protocol: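 Human MASP-2 CCP1-CCP2-SP construct with a C2-cleavage-site fluorogenic substrate in 20 mM HEPES pH 7.4, 140 mM NaCl, 0.1% Tween 20, 20 min at room temperature before acetic acid stop. Activity normalised to DMSO and no-enzyme controls; IC50 taken as equivalent to Ki under linear conditions.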

Structures can show the parent of a compound that is named as a salt.

With `Cc1cc(C)cc(CNc2cnc3n(c2=O)[C@H](C(=O)NCc2ccc4cncn4c2)CC3)c1` [Compound 20, (S)-3-((3,5-dimethylbenzyl)amino)-N-(imidazo[1,5-a]pyridin-6-ylmethyl)-4-oxo-4,6,7,8-tetrahydropyrrolo[1,2-a]pyrimidine-6-carboxamide], the Ki (in general, a measure of affinity in units of concentration, obtained from inhibition or displacement) at human a-thrombin is above 25000 nM; at MASP-2 (CCP1-CCP2-SP), below 500 nM. In test [1], the IC50 – broadly, the concentration needed to halve the response being measured – was below 500 nM.

With `Cc1cc(C)cc(CNc2cnc3n(c2=O)[C@H](C(=O)NCc2cnc4c(c2)CNC4)CC3)c1` [Compound 22, (S)—N-((6,7-dihydro-5H-pyrrolo[3,4-b]pyridin-3-yl)methyl)-3-((3,5-dimethylbenzyl)amino)-4-oxo-4,6,7,8-tetrahydropyrrolo[1,2-a]pyrimidine-6-carboxamide, trifluoroacetate], the Ki was above 25000 nM at human a-thrombin and below 500 nM at MASP-2 (CCP1-CCP2-SP). In addition, in test [1], the half-maximal inhibitory concentration (IC50) is below 500 nM.

Regarding `Cc1cc(F)cc(CNc2cnc3n(c2=O)[C@H](C(=O)N[C@H](C)c2ccc(N)nc2)CC3)c1` [Compound 25, (S)—N—((R)-1-(6-aminopyridin-3-yl)ethyl)-3-((3-fluoro-5-methylbenzyl)amino)-4-oxo-4,6,7,8-tetrahydropyrrolo[1,2-a]pyrimidine-6-carboxamide, DI-trifluoroacetate], the Ki is above 25000 nM on human a-thrombin and below 500 nM on MASP-2 (CCP1-CCP2-SP). The 50% inhibitory concentration (IC50) in test [1] was below 500 nM.

`Cc1nc(N)ccc1CNC(=O)[C@@H]1CCc2ncc(NCc3ccc(-n4cccn4)cc3)c(=O)n21` [Compound 44, (S)-3-((4-(1H-pyrazol-1-yl)benzyl)amino)-N-((6-amino-2-methylpyridin-3-yl)methyl)-4-oxo-4,6,7,8-tetrahydropyrrolo[1,2-a]pyrimidine-6-carboxamide, trifluoroacetate]: the Ki at human a-thrombin was 10000 to 25000 nM; at MASP-2 (CCP1-CCP2-SP), below 500 nM. The compound also had an IC50 in test [1] below 500 nM.

Consider `COc1ccc(CNc2cnc3n(c2=O)[C@H](C(=O)NCc2ccc(N)nc2C)CC3)cc1F` [Compound 46, (S)-N-((6-amino-2-methylpyridin-3-yl)methyl)-3-((3-fluoro-4-methoxybenzyl)amino)-4-oxo-4,6,7,8-tetrahydropyrrolo[1,2-a]pyrimidine-6-carboxamide, di-trifluoroacetate], for which the Ki at human a-thrombin is 500 to 2500 nM; at MASP-2 (CCP1-CCP2-SP), below 500 nM. This compound also displayed an IC50 in test [1] below 500 nM.

Consider `Cc1ccc(F)c(CNc2cnc3n(c2=O)[C@H](C(=O)NCc2cc4c(s2)CNC4)CC3)c1` [Compound 50, (S)—N-((5,6-dihydro-4H-thieno[2,3-C]pyrrol-2-yl)methyl)-3-((2-fluoro-5-methylbenzyl)amino)-4-oxo-4,6,7,8-tetrahydropyrrolo[1,2-a]pyrimidine-6-carboxamide, di-trifluoroacetate], for which the inhibitory constant (Ki) is 2500 to 10000 nM on human a-thrombin and below 500 nM on MASP-2 (CCP1-CCP2-SP). For the same compound, in test [1], the 50% inhibitory concentration (IC50) was below 500 nM.

As for `Cc1nc(N)ccc1CNC(=O)[C@@H]1CCc2ncc(NCc3cccc(F)c3)c(=O)n21` [Compound 53, (S)—N-((6-amino-2-methylpyridin-3-yl)methyl)-3-((3-fluorobenzyl)amino)-4-oxo-4,6,7,8-tetrahydropyrrolo[1,2-a]pyrimidine-6-carboxamide], the values for the inhibition constant Ki on human a-thrombin and on MASP-2 (CCP1-CCP2-SP) were 500 to 2500 nM and below 500 nM, respectively. In test [1], this compound gave a 50% inhibitory concentration (IC50) below 500 nM.

Take `Cc1ccccc1CNc1cnc2n(c1=O)[C@H](C(=O)NCc1ccc(N)nc1C)CC2` [Compound 54, (S)—N-((6-amino-2-methylpyridin-3-yl)methyl)-3-((2-methylbenzyl)amino)-4-oxo-4,6,7,8-tetrahydropyrrolo[1,2-a]pyrimidine-6-carboxamide]: the Ki on human a-thrombin is 500 to 2500 nM; on MASP-2 (CCP1-CCP2-SP), below 500 nM. Further, in test [1], the IC50 was below 500 nM.

As for `Cc1cc(F)ccc1CNc1cnc2n(c1=O)[C@H](C(=O)NCc1ccc(N)nc1C)CC2` [Compound 62], the Ki on human a-thrombin was 2500 to 10000 nM; at MASP-2 (CCP1-CCP2-SP) it was below 500 nM. In addition, the 50% inhibitory concentration (IC50) in test [1] was below 500 nM.

Take `Cc1cc(C)cc(CNc2cnc3n(c2=O)[C@H](C(=O)N[C@H](C)c2ccc(N)nc2C)CC3)c1` [Compound 64, (S)-N-((R)-1-(6-amino-2-methylpyridin-3-yl)ethyl)-3-((3,5-dimethylbenzyl)amino)-4-oxo-4,6,7,8-tetrahydropyrrolo[1,2-a]pyrimidine-6-carboxamide]: the inhibition constant Ki is 10000 to 25000 nM on human a-thrombin and below 500 nM on MASP-2 (CCP1-CCP2-SP). The same compound came in with a concentration for half-maximal inhibition (IC50) in test [1] below 500 nM.

Regarding `Cc1cc(Cl)cc(CNc2cnc3n(c2=O)[C@H](C(=O)NCc2cnc4c(c2)CNC4)CC3)c1` [Compound 65, (S)-3-((3-chloro-5-methylbenzyl)amino)-N-((6,7-dihydro-5H-pyrrolo[3,4-b]pyridin-3-yl)methyl)-4-oxo-4,6,7,8-tetrahydropyrrolo[1,2-a]pyrimidine-6-carboxamide, di-trifluoroacetate], the inhibitory constant (Ki) at human a-thrombin is above 25000 nM; on MASP-2 (CCP1-CCP2-SP), below 500 nM. Moreover, the 50% inhibitory concentration (IC50) in test [1] is below 500 nM.

As for `Cc1ccc(CNc2cnc3n(c2=O)[C@H](C(=O)NCc2ccc(N)nc2C)CC3)cc1C` [Compound 72, (S)-N-((6-amino-2-methylpyridin-3-yl)methyl)-3-((3,4-dimethylbenzyl)amino)-4-oxo-4,6,7,8-tetrahydropyrrolo[1,2-a]pyrimidine-6-carboxamide], the Ki is 500 to 2500 nM on human a-thrombin and below 500 nM on MASP-2 (CCP1-CCP2-SP). In test [1], this compound registered an IC50 below 500 nM.

With `Cc1nc(N)ccc1CNC(=O)[C@@H]1CCc2ncc(NCc3cccc(OC(F)F)c3)c(=O)n21` [Compound 75, (S)-N-((6-amino-2-methylpyridin-3-yl)methyl)-3-((3-(difluoromethoxy)benzyl)amino)-4-oxo-4,6,7,8-tetrahydro-pyrrolo[1,2-a]pyrimidine-6-carboxamide], the Ki at human a-thrombin was 500 to 2500 nM; at MASP-2 (CCP1-CCP2-SP) it was below 500 nM. In test [1], this compound had an IC50 below 500 nM.

For the compound `COc1cc(Cl)cc(CNc2cnc3n(c2=O)[C@H](C(=O)N[C@H](C)c2ccc(N)nc2)CC3)c1` [Compound 76, (S)-N-((R)-1-(6-aminopyridin-3-yl)ethyl)-3-((3-chloro-5-methoxybenzyl)amino)-4-oxo-4,6,7,8-tetrahydropyrrolo[1,2-a]pyrimidine-6-carboxamide], the Ki was 10000 to 25000 nM at human a-thrombin and below 500 nM on MASP-2 (CCP1-CCP2-SP). This compound displayed an IC50 in test [1] below 500 nM.

As to `Cc1cc(C)cc(CNc2cnc3n(c2=O)[C@H](C(=O)N[C@@H]2CCc4nc(N)ccc42)CC3)c1` [Compound 81, (S)—N—((R)-2-amino-6,7-dihydro-5H-cyclopenta[b]pyridin-5-yl)-3-((3,5-dimethylbenzyl)amino)-4-oxo-4,6,7,8-tetrahydropyrrolo[1,2-a]pyrimidine-6-carboxamide], the figures for the inhibition constant (Ki) at human a-thrombin and on MASP-2 (CCP1-CCP2-SP) were 500 to 2500 nM and below 500 nM, respectively. Also, in test [1], the 50% inhibitory concentration (IC50) is below 500 nM.

As to `Cc1cccc(CNc2cnc3n(c2=O)[C@H](C(=O)N[C@@H]2CCc4nc(N)ccc42)CC3)c1` [Compound 82, (S)—N—((R)-2-amino-6,7-dihydro-5H-cyclopenta[b]pyridin-5-yl)-3-((3-methylbenzyl)amino)-4-oxo-4,6,7,8-tetrahydropyrrolo[1,2-a]pyrimidine-6-carboxamide], the Ki is 500 to 2500 nM on human a-thrombin and below 500 nM on MASP-2 (CCP1-CCP2-SP). This compound also showed an IC50 in test [1] below 500 nM.

In the case of `N#CC1C2CC1C2CNc1cnc2n(c1=O)[C@H](C(=O)N[C@@H]1CCc3nc(N)ccc31)CC2` (stereo partly drawn) [Compound 86, (6S)—N—((R)-2-amino-6,7-dihydro-5H-cyclopenta[b]pyridin-5-yl)-3-(((4-cyanobicyclo[1.1.1]pentan-2-yl)methyl)amino)-4-oxo-4,6,7,8-tetrahydropyrrolo[1,2-a]pyrimidine-6-carboxamide], the inhibition constant Ki was above 25000 nM at human a-thrombin and below 500 nM on MASP-2 (CCP1-CCP2-SP). This compound also displayed an IC50 in test [1] below 500 nM.

Regarding `N#Cc1cc(CNc2cnc3n(c2=O)[C@H](C(=O)N[C@@H]2CCc4nc(N)ccc42)CC3)cc(C(F)(F)F)c1` [Compound 90, (S)-N-((R)-2-amino-6,7-dihydro-5H-cyclopenta[b]pyridin-5-yl)-3-((3-cyano-5-(trifluoromethyl)benzyl)amino)-4-oxo-4,6,7,8-tetrahydropyrrolo[1,2-a]pyrimidine-6-carboxamide], the inhibitory constant (Ki) on human a-thrombin was 500 to 2500 nM; on MASP-2 (CCP1-CCP2-SP) it was below 500 nM. The concentration for half-maximal inhibition (IC50) in test [1] was below 500 nM.
